From patent US8153791B2, “Substituted pyrimidinyl oxime kinase inhibitors” (Janssen Pharmaceutica N.V., priority 2005, dated 2012)

Legend:
EGFR = target: T1, EGFR (Homo sapiens, UniProt P00533); test: EGFR Kinase Assay; format: biochemical; conditions: for inhibition at 2 µM: test concentration of 2 μM;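 on all read-outs here: recombinant GST-tagged EGFR expressed in Sf9 cells, phosphorylating biotinylated polyGluTyr with γ-33P ATP on Streptavidin Flashplates, 1 h at 30 °C, scintillation counting, inhibition relative to plate maximum and minimum signals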
T1 construct: The intracellular portion of EGFR started at nucleotide 2189 (corresponding to amino acid 667) and ended at the termination codon; made in house; host or cells: Sf9 insect cells (baculovirus)
T1 sequence (P00533 669-1210 limits assumed): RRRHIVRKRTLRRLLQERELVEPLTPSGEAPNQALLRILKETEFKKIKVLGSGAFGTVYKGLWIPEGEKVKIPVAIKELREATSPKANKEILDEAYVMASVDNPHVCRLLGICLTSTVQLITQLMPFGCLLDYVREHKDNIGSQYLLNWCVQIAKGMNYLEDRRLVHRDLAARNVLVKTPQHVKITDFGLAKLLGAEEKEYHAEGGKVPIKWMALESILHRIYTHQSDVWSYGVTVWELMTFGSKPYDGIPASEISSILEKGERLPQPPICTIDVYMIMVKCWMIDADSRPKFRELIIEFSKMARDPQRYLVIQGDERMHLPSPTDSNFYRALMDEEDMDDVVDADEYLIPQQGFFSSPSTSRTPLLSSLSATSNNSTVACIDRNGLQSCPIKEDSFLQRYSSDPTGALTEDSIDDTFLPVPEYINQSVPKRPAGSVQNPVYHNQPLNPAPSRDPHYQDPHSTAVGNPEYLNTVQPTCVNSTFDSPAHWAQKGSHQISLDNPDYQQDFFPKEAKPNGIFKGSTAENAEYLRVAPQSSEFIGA

HER-2 = target: T2, HER-2 (Homo sapiens, UniProt P04626); test: HER-2 Kinase Assay; format: biochemical; conditions: read-out: HER2 IC50;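 further: HER2 kinase reaction read by scintillation counting, inhibition scaled between maximum and minimum signals set on each plate, IC50 from inhibition against log concentration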
T2 construct: purchased Proqinase (Freiburg, Germany)
T2 sequence (P04626 679-1255): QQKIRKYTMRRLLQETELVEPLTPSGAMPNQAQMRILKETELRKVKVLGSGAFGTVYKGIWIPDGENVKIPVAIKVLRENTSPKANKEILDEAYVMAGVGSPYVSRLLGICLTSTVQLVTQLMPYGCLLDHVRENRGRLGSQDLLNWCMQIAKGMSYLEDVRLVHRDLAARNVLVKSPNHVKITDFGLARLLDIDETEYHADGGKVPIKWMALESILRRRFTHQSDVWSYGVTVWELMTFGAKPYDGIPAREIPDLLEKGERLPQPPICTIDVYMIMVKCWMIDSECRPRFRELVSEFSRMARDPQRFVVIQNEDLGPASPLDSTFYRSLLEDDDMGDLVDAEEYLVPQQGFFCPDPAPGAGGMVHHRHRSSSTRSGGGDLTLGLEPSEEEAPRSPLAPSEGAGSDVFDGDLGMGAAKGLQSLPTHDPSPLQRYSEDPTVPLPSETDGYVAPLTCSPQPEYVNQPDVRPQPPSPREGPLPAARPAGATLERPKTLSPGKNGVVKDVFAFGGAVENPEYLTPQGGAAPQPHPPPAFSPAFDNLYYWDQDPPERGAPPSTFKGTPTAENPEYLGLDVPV

SMILES | IC50 (EGFR) | IC50 (HER-2) | inhibition at 2 µM (EGFR)
CCO/N=C/c1c(N)ncnc1Nc1ccc(OCc2cccc(F)c2)c(OC)c1 [Cpd 62] | 200 nM |  | 
CCO/N=C/c1c(N)ncnc1Nc1ccc2nn(Cc3ccccc3)cc2c1 [Cpd 52] |  | 4500 nM | 
CON=Cc1c(N)ncnc1NCc1ccc2c(c1)OCO2 [Cpd 121, 4-amino-6-[(benzo[1,3]dioxol-5-ylmethyl)-amino]-pyrimidine-5-carbaldehyde O-methyl-oxime] |  | > 10000 nM | 
CCNc1ncnc(Nc2ccc3c(cnn3Cc3cccc(F)c3)c2)c1/C=N/OC [Cpd 40, (5E)-4-ethylamino-6-[1-(3-fluoro-benzyl)-1H-indazol-5-ylamino]-pyrimidine-5-carbaldehyde O-methyl-oxime] |  | 10600 nM | 
CON=Cc1c(N)ncnc1Nc1ccc(OC)cc1 [Cpd 120, 4-amino-6-(4-methoxy-phenylamino)-pyrimidine-5-carbaldehyde O-methyl-oxime] |  | 7920 nM | 15%
CCNc1ncnc(Nc2ccc(OCc3cccc(F)c3)c(Cl)c2)c1/C=N/OC [Cpd 42, (5E)-4-[3-chloro-4-(3-fluoro-benzyloxy)-phenylamino]-6-ethylamino-pyrimidine-5-carbaldehyde O-methyl-oxime] | 7800 nM |  | 
CCNc1ncnc(Nc2ccc3c(cnn3Cc3cccc(F)c3)c2)c1/C=N/OCC [Cpd 41, (5E)-4-ethylamino-6-[1-(3-fluoro-benzyl)-1H-indazol-5-ylamino]-pyrimidine-5-carbaldehyde O-ethyl-oxime] | 400 nM | 3600 nM | 
CNc1ncnc(Nc2ccc(OCc3cccc(F)c3)c(Cl)c2)c1C=NOC [Cpd 39, 4-[3-Chloro-4-(3-fluoro-benzyloxy)-phenylamino]-6-methylamino-pyrimidine-5-carbaldehyde O-methyl-oxime] |  | 14800 nM | 
CCO/N=C/c1c(N)ncnc1Nc1ccc2[nH]c(Cc3cccc(F)c3)nc2c1 [Cpd 58, (5E)-4-amino-6-[2-(3-fluoro-benzyl)-1H-benzoimidazol-5-ylamino]-pyrimidine-5-carbaldehyde O-ethyl-oxime] | 30 nM |  | 
CON=Cc1c(N)ncnc1NCc1ccc(OC)c(OC)c1 [Cpd 122, 4-amino-6-(3,4-dimethoxy-benzylamino)-pyrimidine-5-carbaldehyde O-methyl-oxime] |  | > 100000 nM | 6%
CCNc1ncnc(Nc2ccc(OCc3cccc(F)c3)c(Cl)c2)c1/C=N/OCC [Cpd 43, (5E)-4-[3-chloro-4-(3-fluoro-benzyloxy)-phenylamino]-6-ethylamino-pyrimidine-5-carbaldehyde O-ethyl-oxime] | 1400 nM | 10400 nM | 
CCO/N=C/c1c(N)ncnc1N[C@H](C)c1ccccc1 [Cpd 14] | 100 nM | 3100 nM | 
CO/N=C/c1c(N)ncnc1Nc1ccc2nn(Cc3cccc(F)c3)cc2c1 [Cpd 5] | 500 nM | 3700 nM | 
CO/N=C/c1c(N)ncnc1Nc1cccc(OCc2ccccc2)c1 [Cpd 28] | 900 nM | 5500 nM | 
CO/N=C/c1c(N)ncnc1Nc1cccc(Cl)c1 [Cpd 59, (5E)-4-amino-6-(3-chloro-phenylamino)-pyrimidine-5-carbaldehyde O-methyl-oxime] | 50 nM |  | 
CO/N=C/c1c(N)ncnc1Nc1ccc(OC(F)F)cc1 [Cpd 21] | 1500 nM | 5300 nM | 
CO/N=C/c1c(N)ncnc1Nc1ccc2c(c1)OCO2 [Cpd 23] | 1900 nM | 28500 nM | 
Nc1ncnc(NCc2ccc3c(c2)OCO3)c1C=NCc1ccc2c(c1)OCO2 [Cpd 119, N-benzo[1,3]dioxol-5-ylmethyl-5-[(benzo[1,3]dioxol-5-ylmethylimino)-methyl]-pyrimidine-4,6-diamine] |  | > 10000 nM | 
CON=Cc1c(N)ncnc1NCc1ccc(Oc2ccccc2)cc1 [Cpd 123, 4-amino-6-(4-phenoxy-benzylamino)-pyrimidine-5-carbaldehyde O-methyl-oxime] |  | > 100000 nM | 7%
CO/N=C/c1c(N)ncnc1Nc1ccc(OCc2cccc(F)c2)c(OC)c1 [Cpd 61] | 200 nM |  | 
CCO/N=C/c1c(N)ncnc1Nc1ccc2c(cnn2Cc2cccc(OC)c2)c1 [Cpd 57] | 200 nM |  | 

The next lines start with the values.

IC50 (EGFR) | IC50 (HER-2) | inhibition at 2 µM (EGFR) | SMILES
100 nM | 200 nM |  | CCO/N=C/c1c(N)ncnc1Nc1ccc2c(cnn2Cc2ccc(F)cc2)c1 [Cpd 67, (5E)-4-amino-6-[1-(4-fluoro-benzyl)-1H-indazol-5-ylamino]-pyrimidine-5-carbaldehyde O-ethyl-oxime]
30 nM | 40 nM |  | CCO/N=C/c1c(N)ncnc1Nc1ccc(OCc2cccc(F)c2)c(Cl)c1 [Cpd 18, (5E)-4-amino-6-[3-chloro-4-(3-fluoro-benzyloxy)-phenylamino)-pyrimidine-5-carbaldehyde O-ethyl-oxime]
90 nM | 200 nM |  | CO/N=C/c1c(N)ncnc1Nc1ccc(Oc2ccccc2)cc1 [Cpd 24, (5E)-4-amino-6-(4-phenoxy-phenylamino)-pyrimidine-5-carbaldehyde O-methyl-oxime]
30 nM | 10 nM |  | CCO/N=C/c1c(N)ncnc1Nc1ccc2c(cnn2Cc2ccccc2)c1 [Cpd 49, (5E)-4-amino-6-(1-benzyl-1H-indazol-5-ylamino)-pyrimidine-5-carbaldehyde O-ethyl-oxime]
20 nM | 100 nM |  | CCO/N=C/c1c(N)ncnc1Nc1ccc2c(ccn2Cc2cccc(F)c2)c1 [Cpd 33, (5E)-4-amino-6-[1-(3-fluoro-benzyl)-1H-indol-5-ylamino]-pyrimidine-5-carbaldehyde O-ethyl-oxime]
 | 700 nM |  | COc1cc(Nc2ncnc(N)c2/C=N/OCC(=O)N2CCOCC2)ccc1Oc1ccccc1 [Cpd 8, (5E)-4-amino-6-(3-methoxy-4-phenoxy-phenylamino)-pyrimidine-5-carbaldehyde O-(2-morpholin-4-yl-2-oxo-ethyl)-oxime]
200 nM | 100 nM |  | CO/N=C/c1c(N)ncnc1Nc1ccc(Oc2cccnc2)c(C)c1 [Cpd 13, (5E)-4-amino-6-[3-methyl-4-(pyridin-3-yloxy)-phenylamino]-pyrimidine-5-carbaldehyde O-methyl-oxime]
10 nM | 4 nM |  | Nc1ncnc(Nc2ccc3c(cnn3Cc3cccc(F)c3)c2)c1/C=N\OCCCO [Cpd 69, (5Z)-4-amino-6-[1-(3-fluoro-benzyl)-1H-indazol-5-ylamino]-pyrimidine-5-carbaldehyde O-(3-hydroxy-propyl)-oxime]
1200 nM | 1000 nM |  | CO/N=C/c1c(N)ncnc1Nc1ccc(OC)c(Cl)c1 [Cpd 63]
40 nM | 40 nM |  | CCO/N=C/c1c(N)ncnc1Nc1ccc2c(cnn2Cc2cccc(C#N)c2)c1 [Cpd 51, 3-{5-[6-amino-(5E)-5-(ethoxyimino-methyl)-pyrimidin-4-ylamino]-indazol-1-ylmethyl}-benzonitrile]
40 nM | 30 nM |  | CCO/N=C/c1c(N)ncnc1Nc1ccc2c(cnn2Cc2cccc(Cl)c2)c1 [Cpd 55, (5E)-4-amino-6-[1-(3-chloro-benzyl)-1H-indazol-5-ylamino]-pyrimidine-5-carbaldehyde O-ethyl-oxime]
10 nM | 10 nM |  | CCO/N=C/c1c(N)ncnc1N[C@@H](C)c1ccccc1 [Cpd 16, (5E)-4-amino-6-[(1S)-1-phenyl-ethylamino]-pyrimidine-5-carbaldehyde O-ethyl-oxime]
70 nM | 1600 nM |  | COc1ccc(CO/N=C/c2c(N)ncnc2Nc2ccc3c(cnn3Cc3cccc(F)c3)c2)cc1 [Cpd 44, (5E)-4-amino-6-[1-(3-fluoro-benzyl)-1H-indazol-5-ylamino]-pyrimidine-5-carbaldehyde O-(4-methoxy-benzyl)-oxime]
10 nM | 90 nM |  | CO/N=C/c1c(N)ncnc1Nc1ccc(OCc2ccccn2)c(Cl)c1 [Cpd 32, (5E)-4-amino-6-[3-chloro-4-(pyridin-2-ylmethoxy)-phenylamino]-pyrimidine-5-carbaldehyde O-methyl-oxime]
100 nM | 50 nM |  | CO/N=C/c1c(N)ncnc1Nc1ccc(Oc2cccnc2)c(Cl)c1 [Cpd 38, (5E)-4-amino-6-[3-chloro-4-(pyridin-3-yloxy)-phenylamino]-pyrimidine-5-carbaldehyde O-methyl-oxime]
40 nM | 50 nM |  | CC(C)(C)O/N=C/c1c(N)ncnc1Nc1ccc2c(cnn2Cc2cccc(F)c2)c1 [Cpd 12, (5E)-4-amino-6-[1-(3-fluoro-benzyl)-1H-indazol-5-ylamino]-pyrimidine-5-carbaldehyde O-tert-butyl-oxime]
200 nM | 200 nM |  | CO/N=C/c1c(N)ncnc1Nc1ccc(Oc2ccc(C)nc2)c(C)c1 [Cpd 29, (5E)-4-amino-6-[3-methyl-4-(6-methyl-pyridin-3-yloxy)-phenylamino]-pyrimidine-5-carbaldehyde O-methyl-oxime]
50 nM | 100 nM |  | CO/N=C/c1c(N)ncnc1Nc1ccc(Oc2ccccc2)c(OC)c1 [Cpd 7, (5E)-4-amino-6-(3-methoxy-4-phenoxy-phenylamino)-pyrimidine-5-carbaldehyde O-methyl-oxime]
 | 2900 nM |  | CO/N=C/c1c(N)ncnc1Nc1ccc2oc(Cc3ccccc3)cc2c1 [Cpd 73]
20 nM | 90 nM |  | CCO/N=C/c1c(N)ncnc1Nc1ccc(OCc2ccccc2)c(Cl)c1 [Cpd 37, (5E)-4-amino-6-(4-benzyloxy-3-chloro-phenylamino)-pyrimidine-5-carbaldehyde O-ethyl-oxime]
 | 100 nM |  | Nc1ncnc(Nc2ccc3c(cnn3Cc3cccc(F)c3)c2)c1/C=N/OCC(=O)N1CCOCC1 [Cpd 6, (5E)-4-amino-6-[1-(3-fluoro-benzyl)-1H-indazol-5-ylamino]-pyrimidine-5-carbaldehyde O-(2-morpholin-4-yl-2-oxo-ethyl)-oxime]
40 nM | 200 nM |  | Nc1ncnc(Nc2ccc3c(cnn3Cc3cccc(F)c3)c2)c1/C=N/Oc1ccccc1 [Cpd 65, (5E)-4-amino-6-[1-(3-fluoro-benzyl)-1H-indazol-5-ylamino]-pyrimidine-5-carbaldehyde O-phenyl-oxime]
